In doi:10.1101/2021.10.07.463234v2 (biorxiv, 2021):
pIC50: −log10 of the molar value. Values joined by “and” are separate entries in the source; they are usually repeats but may differ in a detail not shown here. Equal values may be shown once. Where a name gives a salt, the structure may show the parent alone. Read-outs that look alike come from different tables or passages of the source.

Assays:
SARS-CoV-2 Mac1 [1] = target: T1, SARS-CoV-2 Mac1 (Severe acute respiratory syndrome coronavirus 2, UniProt P0DTD1); test: biochemical; details: read-out: %inhibition
SARS-CoV-2 Mac1 [2] = target: T1, SARS-CoV-2 Mac1; test: biochemical; details: for inhibition at 100 µM: read-out: %inhibition; for %inhibition: 100 µM, inhibitor
human MacroD2 = human MacroD2 (Homo sapiens, UniProt A1Z1Q3); test: ADPr-Glo luminescence ADP-ribosylhydrolase assay; type: biochemical
human MacroD2, sequence (A1Z1Q3 whole entry): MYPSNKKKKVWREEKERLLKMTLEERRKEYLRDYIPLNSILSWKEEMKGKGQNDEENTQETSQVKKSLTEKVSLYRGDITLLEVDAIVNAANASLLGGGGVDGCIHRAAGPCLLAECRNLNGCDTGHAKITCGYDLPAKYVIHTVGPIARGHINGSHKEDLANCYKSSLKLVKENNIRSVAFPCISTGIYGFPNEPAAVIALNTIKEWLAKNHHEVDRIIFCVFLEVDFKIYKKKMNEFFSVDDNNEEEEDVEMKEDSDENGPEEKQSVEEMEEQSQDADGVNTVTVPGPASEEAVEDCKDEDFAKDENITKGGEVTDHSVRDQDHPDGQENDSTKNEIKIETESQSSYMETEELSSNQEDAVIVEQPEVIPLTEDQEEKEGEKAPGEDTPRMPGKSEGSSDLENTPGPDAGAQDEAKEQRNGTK

SARS-CoV-2 Mac1 [3] = target: T1, SARS-CoV-2 Mac1; test: biochemical

SMILES | inhibition at 100 µM (SARS-CoV-2 Mac1 [1]) [%] | other results
Nc1nc(Cl)nc2c1ncn2[C@@H]1O[C@H](COP(=O)(O)OP(=O)(O)OP(=O)(O)O)[C@H](O)C1O (stereo partly drawn) [2-Chloroadenosine triphosphate tetrasodium] | 57 | –
NNCc1cccc(O)c1 [3-Hydroxybenzylhydrazine dihydrochloride] | 32 | –
Cc1cccc(C#Cc2ccccc2)n1 [6-Methyl-2-(phenylethynyl)pyridine hydrochloride] | 45 | –
Oc1ncnc2[nH]ncc12 [Allopurinol] | 37 | inhibition at 100 µM (SARS-CoV-2 Mac1 [2]): 0%
O=C1c2c(O)ccc(O)c2C(=O)c2c(NCCNCCO)ccc(NCCNCCO)c21 [Mitoxantrone] | 53 | –
O=C(Nc1cc(C(=O)Nc2ccc(S(=O)(=O)O)cc2S(=O)(=O)O)cc(C(=O)Nc2ccc(S(=O)(=O)O)cc2S(=O)(=O)O)c1)Nc1cc(C(=O)Nc2ccc(S(=O)(=O)O)cc2S(=O)(=O)O)cc(C(=O)Nc2ccc(S(=O)(=O)O)cc2S(=O)(=O)O)c1 [NF449 octasodium salt] | 54 | –
COc1cc2c(cc1OC)[C@@H](c1ccccc1)CN(C)CC2 [R(-)-SCH-12679 maleate] | 96 | –
Nc1c(S(=O)(=O)O)cc(Nc2ccc(Nc3nc(Cl)nc(Nc4cccc(S(=O)(=O)O)c4)n3)c(S(=O)(=O)O)c2)c2c1C(=O)c1ccccc1C2=O [Reactive Blue 2] | 100 | –
Nc1nc(SCc2ccc([N+](=O)[O-])cc2)c2ncn([C@@H]3O[C@H](CO)[C@@H](O)[C@H]3O)c2n1 [S-(4-Nitrobenzyl)-6-thioguanosine] | 35 | –
Cc1ccc(O)c(N=Nc2ccccc2)n1 [SIB 1757] | 79 | –
Cc1ccc(C(=O)Nc2ccc(S(=O)(=O)O)c3cc(S(=O)(=O)O)cc(S(=O)(=O)O)c23)cc1NC(=O)c1cccc(NC(=O)Nc2cccc(C(=O)Nc3cc(C(=O)Nc4ccc(S(=O)(=O)O)c5cc(S(=O)(=O)O)cc(S(=O)(=O)O)c45)ccc3C)c2)c1 [Suramin hexasodium] | 86 | –
N#CC(C#N)=Cc1ccc(O)c(O)c1 [Tyrphostin 23] | 52 | –
N#C/C(=C\c1ccc(O)c(O)c1)C(=O)NCc1ccccc1 [Tyrphostin AG 490] | 79 | –
N#C/C(=C\c1ccc(O)c(O)c1)C(=O)NCCCNC(=O)/C(C#N)=C/c1ccc(O)c(O)c1 [Tyrphostin AG 537] | 54 | –
Cc1nc(Nc2ncc(C(=O)Nc3c(C)cccc3Cl)s2)cc(N2CCN(CCO)CC2)n1 [dasatinib] | – | %inhibition (SARS-CoV-2 Mac1 [2]): 66.44% and 68.55%; inhibition at 100 µM (SARS-CoV-2 Mac1 [2]): 78.6%; pIC50 (human MacroD2): < 2.70; pIC50 (SARS-CoV-2 Mac1 [3]): 4.24 to 4.43
NNc1nnc(NN)c2ccccc12 [dihydralazine] | – | pIC50 (human MacroD2): 2.74 to 3.30; pIC50 (SARS-CoV-2 Mac1 [3]): 3.12 to 3.31
CC[C@H](C)[C@H](N)C(=O)O [isoleucine] | – | inhibition at 100 µM (SARS-CoV-2 Mac1 [2]): 0%
COc1cc2nccc(Oc3ccc(NC(=O)NC4CC4)c(Cl)c3)c2cc1C(N)=O [lenvatinib Mesylate] | – | %inhibition (SARS-CoV-2 Mac1 [2]): 0%
O=C1[C@@H]2[C@H]3CC[C@H](C3)[C@@H]2C(=O)N1C[C@@H]1CCCC[C@H]1CN1CCN(c2nsc3ccccc23)CC1 [lurasidone] | – | inhibition at 100 µM (SARS-CoV-2 Mac1 [2]): 0%
